From ChEMBL document CHEMBL6182917, “Molecular-Level Strategy from Bottom-Up to Acquire High-Efficiency Antimicrobial Peptides” (J Med Chem, 2025)
Activity calls are given as the source filed them. The calls are words filed in the database; no cut-off is given here.

Experiments:
Staphylococcus aureus [1] = test: Antibiofilm activity against Methicillin resistant Staphylococcus aureus ATCC 43300 assessed as inhibition of biofilm formation at 5 uM incubated for 48 hrs by crystal violet staining based microplate reader analysis; type: functional, organism-based
Staphylococcus aureus [2] = test: Antibacterial activity against Methicillin resistant Staphylococcus aureus ATCC 43300 assessed as reduction in bacterial growth at 2 to 5 uM; type: functional, organism-based; conditions: dose 2-5 µM
Staphylococcus aureus [3] = test: Antibacterial activity against Staphylococcus aureus infected in male Sprague-Dawley rat wound model assessed as wound healing at 2 uM administered every 2 days and measured after 10 days; type: functional, organism-based; conditions: time 10.0 day
Staphylococcus aureus [4] = test: Antibacterial activity against Staphylococcus aureus infected in male Sprague-Dawley rat wound model assessed as wound closure at 2 uM administered every 2 days and measured on day 4 relative to control; type: functional; conditions: time 4 day
Staphylococcus aureus [5] = test: Antibacterial activity against Staphylococcus aureus infected in male Sprague-Dawley rat wound model assessed as wound healing with newly formed epidermal tissues at 2 uM administered every 2 days and measured after 10 days; type: functional, organism-based; conditions: time 10.0 day
Staphylococcus aureus [6] = test: Antibacterial activity against Methicillin resistant Staphylococcus aureus infected in male Sprague-Dawley rat wound model assessed as wound closure at 2 uM administered every 2 days and measured on day 10 (reference value: 66.84%); type: functional; conditions: time 10 day
Staphylococcus aureus [7] = test: Antimicrobial activity against Staphylococcus aureus ATCC 29213 assessed as appearance of deformed bacteria at 20 uM incubated for 2 hrs by SEM analysis; type: functional, organism-based
Staphylococcus aureus [8] = test: Antimicrobial activity against Staphylococcus aureus ATCC 29213 assessed as inhibition of microbial growth at 80 uM incubated for 10 hrs by spectrophotometric analysis; type: functional, organism-based
Staphylococcus aureus [9] = test: Antimicrobial activity against Staphylococcus aureus ATCC 29213 assessed as reduction in bacterial survival at 20 uM incubated for 8 hrs by spectrophotometric analysis relative to control; type: functional
Staphylococcus aureus [10] = test: Antibiofilm activity against Staphylococcus aureus ATCC 29213 assessed as inhibition of biofilm formation at 5 uM incubated for 48 hrs by crystal violet staining based microplate reader analysis; type: functional, organism-based
Staphylococcus aureus [11] = test: Antimicrobial activity against Staphylococcus aureus ATCC 29213 assessed as large area of intracellular content at 20 uM incubated for 2 hrs by SEM analysis; type: functional, organism-based
Staphylococcus aureus [12] = test: Antibiofilm activity against Staphylococcus aureus ATCC 29213 assessed as increase in green fluorescence at 5 uM incubated for 12 hrs by SYTO9/PI staining based confocal laser scanning microscopic analysis; type: functional, organism-based
Staphylococcus aureus [13] = test: Antimicrobial activity against Staphylococcus aureus ATCC 29213 assessed as appearance of damaged bacteria by measuring leakage at 20 uM incubated for 2 hrs by SEM analysis; type: functional, organism-based
Staphylococcus aureus [14] = test: Antibiofilm activity against Staphylococcus aureus ATCC 29213 assessed as damaged bacterial cells by measuring red fluorescence at 20 uM incubated for 12 hrs by SYTO9/PI staining based confocal laser scanning microscopic analysis; type: functional, organism-based
Staphylococcus aureus [15] = test: Antibiofilm activity against Staphylococcus aureus ATCC 29213 assessed as biofilm eradication at 10 uM incubated for 48 hrs by crystal violet staining based microplate reader analysis relative to control; type: functional
Staphylococcus aureus [16] = test: Antimicrobial activity against Staphylococcus aureus ATCC 29213 assessed as appearance of wrinkled bacteria by measuring leakage at 20 uM incubated for 2 hrs by SEM analysis; type: functional, organism-based
Streptococcus mutans [17] = test: Antibacterial activity against Streptococcus mutans ATCC 25175 incubated for 18 hrs; type: functional
MC3T3-E1 [18] = test: Cytotoxicity against mouse MC3T3-E1 cells assessed as reduction in cell viability at 2 uM incubated for 2 days by CCK-8 assay relative to control; type: toxicity, cell-based; conditions: mc3t3-e1, 48 h, time 2 day
[19] = Hemolytic activity in rabbit RBC assessed as hemolytic rate at 32 uM incubated for 1 hrs by spectrophotometric analysis; type: toxicity, cell-based, Oryctolagus cuniculus, Erythrocyte; conditions: red blood cells (RBC), read-out: Activity
Staphylococcus aureus [20] = test: Antimicrobial activity against Staphylococcus aureus ATCC 29213 assessed as intracellular content leakage at 20 uM incubated for 2 hrs by SEM analysis; type: functional, organism-based
Escherichia coli [21] = test: Antibacterial activity against Escherichia coli ATCC 25922 incubated for 18 hrs; type: functional
[22] = tested on: Aggregatibacter actinomycetemcomitans; test: Antibacterial activity against Actinobacillus actinomycetemcomitans ATCC 43717 incubated for 18 hrs; type: functional
Staphylococcus aureus [23] = test: Antibacterial activity against Methicillin resistant Staphylococcus aureus ATCC 43300 incubated for 18 hrs; type: functional
MC3T3-E1 [24] = test: Cytotoxicity against mouse MC3T3-E1 cells assessed as reduction in cell viability at > 10 uM incubated for 2 days by CCK-8 assay; type: toxicity, cell-based; conditions: mc3t3-e1, 48 h, time 2 day
Staphylococcus aureus [25] = test: Antimicrobial activity against Staphylococcus aureus ATCC 29213 assessed as appearance of damaged bacteria at 5 uM incubated for 2 hrs by SEM analysis relative to control; type: functional
Staphylococcus aureus [26] = test: Antimicrobial activity against Staphylococcus aureus ATCC 29213 assessed as inhibition of microbial growth at 5 uM incubated for 10 hrs by spectrophotometric analysis relative to control; type: functional; design: scale not given: the % may be the effect or the level left
Staphylococcus aureus [27] = test: Antimicrobial activity against Staphylococcus aureus ATCC 29213 assessed as reduction in bacterial survival at 5 uM incubated for 8 hrs by spectrophotometric analysis relative to control; type: functional
Streptococcus mutans [28] = test: Bactericidal activity against Streptococcus mutans ATCC 25175 incubated for 18 hrs; type: functional
Staphylococcus aureus [29] = test: Antibiofilm activity against Staphylococcus aureus ATCC 29213 assessed as inhibition of biofilm formation at 2 uM incubated for 48 hrs by crystal violet staining based microplate reader analysis; type: functional, organism-based
Staphylococcus aureus [30] = test: Antibiofilm activity against Methicillin resistant Staphylococcus aureus ATCC 43300 assessed as reduction in colony count at 2 to 5 uM incubated for 24 hrs by CFU assay; type: functional, organism-based; conditions: dose 2-5 µM
Staphylococcus aureus [31] = test: Bactericidal activity against Methicillin resistant Staphylococcus aureus ATCC 43300 incubated for 18 hrs; type: functional
[32] = tested on: Aggregatibacter actinomycetemcomitans; test: Bactericidal activity against Actinobacillus actinomycetemcomitans ATCC 43717 incubated for 18 hrs; type: functional
[33] = tested on: Aggregatibacter actinomycetemcomitans; test: Antibiofilm activity against Actinobacillus actinomycetemcomitans ATCC 43717 assessed as inhibition of biofilm formation at 5 uM incubated for 48 hrs by crystal violet staining based microplate reader analysis; type: functional, organism-based
Streptococcus mutans [34] = test: Antibiofilm activity against Streptococcus mutans ATCC 25175 assessed as inhibition of biofilm formation at 5 uM incubated for 48 hrs by crystal violet staining based microplate reader analysis; type: functional, organism-based
Staphylococcus aureus [35] = test: Antimicrobial activity against Staphylococcus aureus ATCC 29213 assessed as reduction in bacterial survival at 5 uM incubated for 4 hrs by spectrophotometric analysis relative to control; type: functional
Staphylococcus aureus [36] = test: Antimicrobial activity against Staphylococcus aureus ATCC 29213 assessed as disappearance of normal shape at 20 uM incubated for 2 hrs by SEM analysis; type: functional, organism-based
Staphylococcus aureus [37] = test: Antibiofilm activity against Staphylococcus aureus ATCC 29213 assessed as disappearance of colony formation at 2 uM incubated for 48 hrs by crystal violet staining based microplate reader analysis; type: functional, organism-based
Staphylococcus aureus [38] = test: Antimicrobial activity against Staphylococcus aureus ATCC 29213 assessed as reduction in bacterial survival at 5 uM incubated for 2 hrs by spectrophotometric analysis relative to control; type: functional
Staphylococcus aureus [39] = test: Antibiofilm activity against Staphylococcus aureus ATCC 29213 assessed as damaged bacterial cells by measuring red fluorescence at 5 uM incubated for 12 hrs by SYTO9/PI staining based confocal laser scanning microscopic analysis; type: functional, organism-based
Escherichia coli [40] = test: Bactericidal activity against Escherichia coli ATCC 25922 incubated for 18 hrs; type: functional
Staphylococcus aureus [41] = test: Antimicrobial activity against Staphylococcus aureus ATCC 29213 assessed as appearance of intracellular content in whole area at 20 uM incubated for 2 hrs by SEM analysis; type: functional, organism-based
Staphylococcus aureus [42] = test: Antibacterial activity against Methicillin resistant Staphylococcus aureus infected in male Sprague-Dawley rat wound model assessed as wound closure at 2 uM administered every 2 days and measured on day 7 (reference value: 66.84%); type: functional; conditions: time 7 day

Compound: CCn1cc(C(=O)O)c(=O)c2cc(F)c(N3CCNCC3)cc21
- Activity (Staphylococcus aureus [1]): Active; Weaker Inhibition Of Biofilm Observed
- Activity (Staphylococcus aureus [2]): inactive

Compound: CO[C@@]1(NC(=O)Cc2cccs2)C(=O)N2C(C(=O)O)=C(COC(N)=O)CS[C@@H]21 [CEFOXITIN]
- Activity (Staphylococcus aureus [3]): Active
- Activity (Staphylococcus aureus [4]): 66.13%
- Activity (Staphylococcus aureus [5]): Active
- Activity (Staphylococcus aureus [1]): Active; Weaker Inhibition Of Biofilm Observed
- Activity (Staphylococcus aureus [6]): 77.35%
- Activity (Staphylococcus aureus [2]): inactive

Compound: H-FGLDIIKKIAESF-NH2
- Activity (Staphylococcus aureus [7]): Active
- Activity (Staphylococcus aureus [8]): Active

Compound: H-FGLKIIKKIAKSF-NH2
- Activity (Staphylococcus aureus [9]): 6.45%
- Activity (Staphylococcus aureus [10]): Active
- Activity (Staphylococcus aureus [11]): Active
- Activity (Staphylococcus aureus [12]): inactive
- Activity (Staphylococcus aureus [13]): Active
- Activity (Staphylococcus aureus [14]): Active
- Activity (Staphylococcus aureus [15]): 100%
- Activity (Staphylococcus aureus [16]): Active

Compound: H-FLFDIIKKIAESG-NH2
- Activity (Staphylococcus aureus [8]): Active

Compound: H-GLFDIIKKIAEFS-NH2
- Activity (Staphylococcus aureus [7]): Active

Compound: H-GLFDIIKKIAESF-NH2
- MIC (Streptococcus mutans [17]): ≥ 80 µM
- Activity (MC3T3-E1 [18]): 91.16%
- hemolysis at 1 h, 32 µM [19]: < 10%
- Activity (Staphylococcus aureus [20]): Active
- MIC (Escherichia coli [21]): ≥ 80 µM
- MIC [22]: ≥ 80 µM
- MIC (Staphylococcus aureus [23]): ≥ 80 µM

Compound: H-GLFKIIKKIAKSF-NH2
- Activity (MC3T3-E1 [24]): Toxic
- MIC (Streptococcus mutans [17]): ≤ 10 µM
- Activity (Staphylococcus aureus [25]): 100%
- Activity (Staphylococcus aureus [26]): 100%
- Activity (Staphylococcus aureus [3]): Active
- Activity (Staphylococcus aureus [27]): 8.24%
- Activity (MC3T3-E1 [18]): 85.49%
- Activity (Staphylococcus aureus [4]): 68.16%
- Activity (Staphylococcus aureus [9]): 6.7%
- MBC (Streptococcus mutans [28]): ≤ 10 µM
- Activity (Staphylococcus aureus [29]): Active
- Activity (Staphylococcus aureus [30]): Active
- Activity (Staphylococcus aureus [11]): Active
- hemolysis at 1 h, 32 µM [19]: < 10%
- MBC (Staphylococcus aureus [31]): ≤ 10 µM
- Activity (Staphylococcus aureus [5]): Active
- MBC [32]: ≤ 10 µM
- MIC (Escherichia coli [21]): ≤ 10 µM
- Activity (Staphylococcus aureus [14]): Active
- Activity [33]: Active
- Activity (Streptococcus mutans [34]): Active
- Activity (Staphylococcus aureus [35]): 8.89%
- Activity (Staphylococcus aureus [36]): Active
- Activity (Staphylococcus aureus [1]): Active
- Activity (Staphylococcus aureus [37]): Active
- MIC [22]: ≤ 10 µM
- Activity (Staphylococcus aureus [38]): 11.54%
- Activity (Staphylococcus aureus [6]): 100%
- Activity (Staphylococcus aureus [39]): Active
- MBC (Escherichia coli [40]): ≤ 10 µM
- Activity (Staphylococcus aureus [41]): Active
- MIC (Staphylococcus aureus [23]): ≤ 10 µM
- Activity (Staphylococcus aureus [42]): <=92.65%

Compound: H-GLFKIIKKIAKSG-NH2
- Activity (Staphylococcus aureus [7]): Active
